Laboratory results published in ChEMBL document CHEMBL1146288, “Thiosialoside clusters using carbosilane dendrimer core scaffolds as a new class of influenza neuraminidase inhibitors” (Bioorg Med Chem Lett, 2007).

Columns and labels:
[1] = Inhibition of influenza A virus A/PR/8/34(H1N1)) sialidase
[2] = Inhibition of influenza A virus A/Memphis/1/71(H3N2)) sialidase; design: species or system Influenza A virus (A/Memphis/1/1971(H3N2))

Compound	IC50 [1] [mM]	IC50 [2] [mM]
CC(=O)N[C@@H]1[C@@H]([C@H](O)[C@H](O)CO)O[C@](SCCCCCOCCCSCCC[Si](CCCSCCCOCCCCCS[C@@]2(C(=O)O)C[C@@H](O)[C@H](NC(C)=O)[C@@H]([C@H](O)[C@H](O)CO)O2)(CCCSCCCOCCCCCS[C@@]2(C(=O)O)C[C@@H](O)[C@H](NC(C)=O)[C@@H]([C@H](O)[C@H](O)CO)O2)CCC[Si](C)(C)CCC[Si](CCCSCCCOCCCCCS[C@@]2(C(=O)O)C[C@@H](O)[C@H](NC(C)=O)[C@@H]([C@H](O)[C@H](O)CO)O2)(CCCSCCCOCCCCCS[C@@]2(C(=O)O)C[C@@H](O)[C@H](NC(C)=O)[C@@H]([C@H](O)[C@H](O)CO)O2)CCCSCCCOCCCCCS[C@@]2(C(=O)O)C[C@@H](O)[C@H](NC(C)=O)[C@@H]([C@H](O)[C@H](O)CO)O2)(C(=O)O)C[C@H]1O	5	1.25
CC(=O)N[C@@H]1[C@@H]([C@H](O)[C@H](O)CO)O[C@](SCCCCCOCCCSCCC[Si](CCCSCCCOCCCCCS[C@@]2(C(=O)O)C[C@@H](O)[C@H](NC(C)=O)[C@@H]([C@H](O)[C@H](O)CO)O2)(CCCSCCCOCCCCCS[C@@]2(C(=O)O)C[C@@H](O)[C@H](NC(C)=O)[C@@H]([C@H](O)[C@H](O)CO)O2)c2ccccc2)(C(=O)O)C[C@H]1O	5	5
CC(=O)N[C@@H]1[C@@H]([C@H](O)[C@H](O)CO)O[C@](SCCCCCOCCCSCCC[Si](CCCSCCCOCCCCCS[C@@]2(C(=O)O)C[C@@H](O)[C@H](NC(C)=O)[C@@H]([C@H](O)[C@H](O)CO)O2)(CCCSCCCOCCCCCS[C@@]2(C(=O)O)C[C@@H](O)[C@H](NC(C)=O)[C@@H]([C@H](O)[C@H](O)CO)O2)CCCSCCCOCCCCCS[C@@]2(C(=O)O)C[C@@H](O)[C@H](NC(C)=O)[C@@H]([C@H](O)[C@H](O)CO)O2)(C(=O)O)C[C@H]1O	5	5
